Values joined by “and” are separate entries in the source; they are usually repeats but may differ in a detail not shown here. Equal entries are not always repeated.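 How tested: cells in 96-well plates exposed to compound for 48 hours at five concentrations. Abbreviation: GI50, concentration required for 50% inhibition of growth. TGI: total growth inhibition.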
Assays:
Assay in all cases: inhibition of tumour cell growth, NCI panel, 48 h
HCT-15 colon = system: HCT-15 colon
HCT-116 colon = system: HCT-116 colon
OVCAR-5 ovarian = system: OVCAR-5 ovarian
MDA-MB-231 breast = system: MDA-MB-231 breast
PC-3 prostate = system: PC-3 prostate
A549 NSCLC = system: A549 NSCLC
MOLT-4 leukemia = system: MOLT-4 leukemia
RXF 393 renal = system: RXF 393 renal
IGROV1 ovarian = system: IGROV1 ovarian
M14 melanoma = system: M14 melanoma

SMILES | GI50 (HCT-15 colon) | TGI (HCT-15 colon) | GI50 (HCT-116 colon) | TGI (HCT-116 colon) | GI50 (OVCAR-5 ovarian) [µM] | TGI (OVCAR-5 ovarian) [µM] | GI50 (MDA-MB-231 breast) | TGI (MDA-MB-231 breast) | GI50 (PC-3 prostate) | TGI (PC-3 prostate) | GI50 (A549 NSCLC) | TGI (A549 NSCLC) | GI50 (MOLT-4 leukemia) | TGI (MOLT-4 leukemia) | GI50 (RXF 393 renal) | TGI (RXF 393 renal) | GI50 (IGROV1 ovarian) | TGI (IGROV1 ovarian) | GI50 (M14 melanoma) | TGI (M14 melanoma)
COc1ccc(Oc2nc3cc(N)cc(N)c3nc2-c2ccccc2)cc1 | 52.1 µM | > 100 µM | 28.7 µM | 75.1 µM | 94.5 | > 100 | 20.4 µM | 64.5 µM | 15 µM | > 100 µM | 37.4 µM | > 100 µM | 5.31 µM | 93.9 µM | 19.9 µM | 73.9 µM | 24.9 µM | > 100 µM | > 100 µM | > 100 µM
COc1cc(C(=O)/C=C/c2cc(-c3ccc4c(c3)OCO4)n[nH]2)cc(OC)c1OC | 1.95 µM | 6.75 µM | 1.9 µM | 4.63 µM | 2.63 | 9.6 | 2.08 µM | 6.23 µM | 1.51 µM | 4.02 µM | 2.13 µM | 6.23 µM | 2.71 µM | 8.36 µM | 1.31 µM | 2.94 µM | 1.99 µM | 5.72 µM | 2.91 µM | 9.2 µM
COC(=O)c1c[nH]c2cc(OC(C)C)c(OC(C)C)cc2c1=O | > 100 µM | > 100 µM | > 100 µM | > 100 µM | > 100 | > 100 | > 100 µM | > 100 µM | > 100 µM | > 100 µM | > 100 µM | > 100 µM | > 100 µM | > 100 µM | > 100 µM | > 100 µM | > 100 µM | > 100 µM | > 100 µM | > 100 µM
O=S1(=O)c2ccccc2N(c2ccccc2)c2nnnn21 |  | 37.8 µM |  | 86.9 µM |  | > 100 |  | 72.4 µM |  | > 100 µM |  | > 100 µM |  | 55.3 µM |  | 49.5 µM |  | > 100 µM |  | 54.5 µM
Cc1cc(O)ccc1C1=NN(c2ccc(S(N)(=O)=O)cc2)C(=O)CC1 | 2.67 µM and 4.2 µM | 50 µM and > 100 µM | 3.5 µM and 7.27 µM | 50 µM and > 100 µM | > 100 | > 100 | 10.9 µM and 21.8 µM | 50 µM and > 100 µM | 23.5 µM and 52.1 µM | 50 µM and > 100 µM | 14 µM and 15.3 µM | 50 µM and > 100 µM | 2.67 µM and 6.09 µM | 50 µM and > 100 µM | 6.31 µM and 13.7 µM | 50 µM and 42.1 µM | 6.75 µM and 9.07 µM | 50 µM and > 100 µM | 2.55 µM and 4.48 µM | 50 µM and 81.4 µM
C=C1C(=O)O[C@H]2[C@H]1CC/C(COC(=O)c1cccnc1N)=C\CC[C@@]1(C)O[C@@H]21 | 2.34 µM | 9.79 µM | 0.36 µM | 1.26 µM | 6.95 | 21.7 | 2.32 µM | 6.9 µM | 3.72 µM | 19.2 µM | 3.77 µM | 16.5 µM | 0.65 µM | 6.46 µM | 1.53 µM | 3.78 µM | 2.56 µM | 11.6 µM | 1.12 µM | 3.59 µM
C=CCn1c2ccccc2c2c3c(c4c5ccccc5n(CC=C)c4c21)C(=O)N(O)C3=O | 3.18 µM | 17 µM | 2.29 µM | 12.5 µM | 5.29 | 29.6 | 4.12 µM | 21.4 µM | 2.69 µM | 25.3 µM | 4.47 µM | 55.4 µM | 1.02 µM | 5.12 µM | 3.94 µM | 19.6 µM | 1.4 µM | 3.8 µM | 2.31 µM | 26.2 µM
C=C1c2nc3ccccc3n2C=C(c2cccc(Cl)c2)N1Cc1ccc(OC)cc1 | 0.535 µM | > 100 µM | 0.496 µM | 11.7 µM | 5.84 | > 30.9 | 0.964 µM | > 100 µM | 2.21 µM | > 70.3 µM | 3.98 µM | > 100 µM | 2.57 µM | 11.2 µM | 1.16 µM | 13.1 µM | 0.471 µM | 15.8 µM | 0.589 µM | > 44.2 µM
Cc1ccc(N(C=O)c2c([N+](=O)[O-])cc([N+](=O)[O-])c3c2=[N+]([O-])CN=3)cc1 |  | 34.8 µM |  | 67.4 µM |  | > 100 |  | 54.5 µM |  | 47.3 µM |  | > 100 µM |  | 80.4 µM |  | 42 µM |  | > 100 µM |  | 44.8 µM
O=C1C=C(NCCO)c2nccc3c2c1nc1ccccc13 | 18.6 µM | > 100 µM | 11.5 µM | 38.7 µM | 28.6 | > 100 | 24.5 µM | > 100 µM | 27.3 µM | > 100 µM | 16.4 µM | > 100 µM | 5.94 µM | > 100 µM | 28.2 µM | 89.4 µM | 20.4 µM | > 100 µM | 17.3 µM | 58.7 µM
COc1cc(-c2nn(-c3ccc(NC(=O)Nc4cc(C(F)(F)F)cc(C(F)(F)F)c4)cc3)cc2-c2ccncc2)ccc1Cl | 1.58 µM | 4.01 µM | 1.65 µM | 3.39 µM | 1.91 | 5.16 | 1.64 µM | 3.34 µM | 1.2 µM | 10.8 µM | 2.47 µM | 13 µM | 3.28 µM | > 100 µM | 1.61 µM | 3.58 µM | 2.65 µM | 8.25 µM | 1.99 µM | 4.23 µM
CC(C)(C)[Si](C)(C)OCC1OC(n2cnc3c(=O)[nH]cnc32)CC1O (configuration not stated) |  | > 100 µM |  | > 100 µM |  | > 100 |  | > 100 µM |  | > 100 µM |  | > 100 µM |  | > 100 µM |  | > 100 µM |  | > 100 µM |  | > 100 µM
CC[C@@H](C)/C=C(C)/C=C/C(=O)c1c(O)c(-c2ccc(OC(=O)[C@@]34CC[C@@](C)(C(=O)O3)C4(C)C)cc2)cn(O)c1=O | 1.17 µM | > 50 µM | 1.47 µM | > 50 µM | 2.79 | > 50 | 1.83 µM | > 50 µM | 20.4 µM | > 50 µM | 4.27 µM | > 50 µM | 1.04 µM | > 50 µM | 1.81 µM | > 50 µM | 1.72 µM | 41.4 µM | 1.06 µM | 2.49 µM
Cc1ccc(/C=N/NC(=O)c2ccccc2Oc2ccccc2)o1 | 37.9 µM | > 100 µM | 48.8 µM | > 100 µM | > 93 | > 100 | 32.7 µM | > 100 µM | 30.3 µM | > 100 µM | 43.5 µM | > 100 µM | 22.8 µM | 66.5 µM | 35.6 µM | > 100 µM | 59.5 µM | > 100 µM | 40.5 µM | > 100 µM
Cn1ncc(C#N)c1-c1ccc2c(c1)CN([C@H](CN)Cc1cccc(F)c1)C2=O | 15.9 µM | > 100 µM | 12.9 µM | 28.7 µM | 18.6 | > 100 | 20.9 µM | > 100 µM | 0.393 µM | > 70.5 µM | 5.34 µM | > 100 µM | 0.413 µM | 27.4 µM | 0.172 µM | 2.43 µM | 0.0489 µM | 1.59 µM | 14.2 µM | 57.1 µM
Cc1ccc(C[As+](c2ccccc2)(c2ccccc2)c2ccccc2)cc1 | 13 µM | > 100 µM | 0.645 µM | > 36.2 µM | 1.74 | > 87.2 | 1.46 µM | 19.6 µM | 0.409 µM | 10.4 µM | 0.588 µM | 35.8 µM | 2.41 µM | 13.6 µM | 1.62 µM | 11.4 µM | 1.17 µM | 25.1 µM | 0.704 µM | 10.8 µM
CNC(=O)ON(C(C)=O)C(=O)NC | > 76.4 µM | 109 µM |  | 136 µM |  | 276 | 28.8 µM | 78.4 µM |  | 60.7 µM |  | 283 µM | 35.7 µM and 19.1 µM | > 91.5 µM and 92 µM |  | 107 µM |  | 241 µM | > 83.2 µM | 41 µM
O=C(O)CCC(c1ccccc1)(c1ccccc1)c1ccccc1 |  | > 100 µM | 43.6 µM | > 100 µM |  | > 100 |  | > 100 µM |  | > 100 µM |  | > 100 µM |  | > 92.2 µM | 49.5 µM | > 100 µM | 71.2 µM | > 100 µM |  | > 100 µM
O=C(Oc1ccccc1)N(c1ccccc1)c1ccccc1 | 31.1 µM | > 100 µM | 18.6 µM | 76.8 µM | 45.9 | > 100 | 28 µM | > 100 µM | 35.1 µM | > 100 µM | 26.2 µM | > 100 µM | 28.3 µM | > 100 µM | 25.8 µM | 92.6 µM | 38.1 µM | > 100 µM | 24.7 µM | 65.2 µM
c1ccc(-c2[nH]ncc2-c2ccnc(-c3ccc(OCCN4CCOCC4)cc3)c2)nc1 | > 25 µM | > 25 µM | > 25 µM | > 25 µM | > 25 | > 25 | > 25 µM | > 25 µM | > 25 µM | > 25 µM | > 25 µM | > 25 µM | > 25 µM | > 25 µM | > 25 µM | > 25 µM | > 25 µM | > 25 µM | > 25 µM | > 25 µM
NS(=O)(=O)c1ccc(N=Nc2ccc[nH]c2=O)cc1 |  | > 100 µM |  | > 100 µM |  | > 100 |  | > 100 µM |  | > 100 µM |  | > 100 µM |  | > 100 µM |  | > 100 µM |  | > 100 µM |  | > 100 µM
C/C=C(\N=C=S)C(=O)OC1C(COC(C)=O)OC([C@]2(O)CC(=O)C(=N)C(C(=O)O)=C2O)C(O)C1OC1CC(OC)C(O)([C@@H](C)OC(=O)[C@@H](C)CC)C(C)O1 (some centres not stated) |  | 37.1 µM |  | 21.9 µM |  | 40.4 |  | 51.7 µM |  | 32.7 µM |  | > 80.6 µM |  | 14 µM |  | 15.5 µM |  | 36 µM |  | 30.9 µM
